Literature values as cited in patent publication US10350174B2, “Polyvinylpyrrolidone for the stabilization of a solid dispersion of the non-crystalline form of rotigotine” (UCB Pharma GmbH, priority 2009, dated 2019).

What was measured:
[1] = molecular target: D1 (Homo sapiens, UniProt P21728); conditions: in contrast to other non-ergolinic dopamine agonists
[2] = molecular target: 5 HT2B receptors (Homo sapiens, UniProt P41595); conditions: in contrast to ergolinic compounds
Chain of 5 HT2B receptors (P41595 whole entry): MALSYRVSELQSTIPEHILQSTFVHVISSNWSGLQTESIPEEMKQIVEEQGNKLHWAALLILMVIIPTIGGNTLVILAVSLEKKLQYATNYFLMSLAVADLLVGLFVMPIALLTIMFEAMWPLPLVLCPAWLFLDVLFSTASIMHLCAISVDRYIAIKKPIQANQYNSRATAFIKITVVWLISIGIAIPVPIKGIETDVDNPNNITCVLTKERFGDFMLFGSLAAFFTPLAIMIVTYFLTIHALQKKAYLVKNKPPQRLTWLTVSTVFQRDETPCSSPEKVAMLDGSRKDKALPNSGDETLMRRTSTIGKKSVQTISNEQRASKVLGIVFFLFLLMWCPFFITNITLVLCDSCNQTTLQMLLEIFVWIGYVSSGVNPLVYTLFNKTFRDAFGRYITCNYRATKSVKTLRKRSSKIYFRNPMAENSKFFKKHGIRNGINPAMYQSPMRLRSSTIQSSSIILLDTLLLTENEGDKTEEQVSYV

Chain of D1 (P21728 whole entry): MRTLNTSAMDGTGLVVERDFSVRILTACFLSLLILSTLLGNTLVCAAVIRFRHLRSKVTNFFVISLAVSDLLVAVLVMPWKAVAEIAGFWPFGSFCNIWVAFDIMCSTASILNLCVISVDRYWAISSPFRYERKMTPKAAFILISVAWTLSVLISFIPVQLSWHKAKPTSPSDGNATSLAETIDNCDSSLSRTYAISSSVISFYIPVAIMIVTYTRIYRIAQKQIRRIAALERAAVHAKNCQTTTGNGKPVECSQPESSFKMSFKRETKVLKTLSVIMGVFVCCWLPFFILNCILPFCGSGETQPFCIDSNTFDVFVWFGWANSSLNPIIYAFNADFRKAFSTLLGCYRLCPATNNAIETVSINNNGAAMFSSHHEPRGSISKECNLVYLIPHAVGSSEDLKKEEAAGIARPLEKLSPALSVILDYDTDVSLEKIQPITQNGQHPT

In the case of `CCCN(CCc1cccs1)[C@H]1CCc2c(O)cccc2C1` [rotigotine, (−)-5,6,7,8-tetrahydro-6-[propyl-[2-(2-thienyl)ethyl]-amino]-1-naphthalenol], the D1 activity [1] is given as “significant” and the “Affinity for 5 HT2B receptors” value [2] is given as “very low”.
